Assay: Storage stability towards polymorphic conversion, triple layer package
Assay type: physicochemical
Details: 25° C. ±2° C. and 60% ±5% relative humidity for two months under triple layer package
Excerpt: The term “triple layer package,” as used herein, refers to the afatinib dimaleate being packed in a low density polyethylene (LDPE) pouch, then inserted and heat sealed under vacuum in a bag with a mixture of polyester/LDPE with silica sachet as a desiccant, and then further inserted and heat sealed under vacuum into an outer bag with a mixture of polyester film/aluminum foil/polyester LDPE.

Question: Which “polymorphic form stability on storage (conversion to any other form)” value does the source give for `CN(C)C/C=C/C(=O)Nc1cc2c(Nc3ccc(F)c(Cl)c3)ncnc2cc1O[C@H]1CCOC1.O=C(O)/C=C\C(=O)O.O=C(O)/C=C\C(=O)O` [crystalline Form I of afatinib dimaleate, 2-butenamide, N-[4-[(3-chloro-4-fluorophenyl)amino]-7-[[(3S)-tetrahydro-3-furanyl]oxy]-6-quinazolinyl]-4-(dimethylamino)-,(2E)-, (2Z)-2-butenedioate (1:2)] here?
Answer: The value was “not converted to any other form of afatinib dimaleate”.
